Columns and labels:
[1] = target: T1, L channels of isolated skeletal muscle (Oryctolagus cuniculus, UniProt P07293); settings: read-out: concentration of calcium required for 50% inhibition (Ki) of verapamil binding; isolated skeletal muscle (Galizzi et al. 1984); cited from earlier work
T1 construct: host or cells: isolated skeletal muscle

[2] = test system: Schistosoma mansoni; experiment: Schistosoma mansoni in vitro egg production, eight day culture of worm pairs; format: cell-based
[3] = test system: Echinostoma caproni; settings: elevated concentrations (microgram range: verapamil 50-200, nifedipine 25-200, diltiazem 5-50 μg/ml), 24 hours, ANOVA

T1 sequence (P07293 whole entry): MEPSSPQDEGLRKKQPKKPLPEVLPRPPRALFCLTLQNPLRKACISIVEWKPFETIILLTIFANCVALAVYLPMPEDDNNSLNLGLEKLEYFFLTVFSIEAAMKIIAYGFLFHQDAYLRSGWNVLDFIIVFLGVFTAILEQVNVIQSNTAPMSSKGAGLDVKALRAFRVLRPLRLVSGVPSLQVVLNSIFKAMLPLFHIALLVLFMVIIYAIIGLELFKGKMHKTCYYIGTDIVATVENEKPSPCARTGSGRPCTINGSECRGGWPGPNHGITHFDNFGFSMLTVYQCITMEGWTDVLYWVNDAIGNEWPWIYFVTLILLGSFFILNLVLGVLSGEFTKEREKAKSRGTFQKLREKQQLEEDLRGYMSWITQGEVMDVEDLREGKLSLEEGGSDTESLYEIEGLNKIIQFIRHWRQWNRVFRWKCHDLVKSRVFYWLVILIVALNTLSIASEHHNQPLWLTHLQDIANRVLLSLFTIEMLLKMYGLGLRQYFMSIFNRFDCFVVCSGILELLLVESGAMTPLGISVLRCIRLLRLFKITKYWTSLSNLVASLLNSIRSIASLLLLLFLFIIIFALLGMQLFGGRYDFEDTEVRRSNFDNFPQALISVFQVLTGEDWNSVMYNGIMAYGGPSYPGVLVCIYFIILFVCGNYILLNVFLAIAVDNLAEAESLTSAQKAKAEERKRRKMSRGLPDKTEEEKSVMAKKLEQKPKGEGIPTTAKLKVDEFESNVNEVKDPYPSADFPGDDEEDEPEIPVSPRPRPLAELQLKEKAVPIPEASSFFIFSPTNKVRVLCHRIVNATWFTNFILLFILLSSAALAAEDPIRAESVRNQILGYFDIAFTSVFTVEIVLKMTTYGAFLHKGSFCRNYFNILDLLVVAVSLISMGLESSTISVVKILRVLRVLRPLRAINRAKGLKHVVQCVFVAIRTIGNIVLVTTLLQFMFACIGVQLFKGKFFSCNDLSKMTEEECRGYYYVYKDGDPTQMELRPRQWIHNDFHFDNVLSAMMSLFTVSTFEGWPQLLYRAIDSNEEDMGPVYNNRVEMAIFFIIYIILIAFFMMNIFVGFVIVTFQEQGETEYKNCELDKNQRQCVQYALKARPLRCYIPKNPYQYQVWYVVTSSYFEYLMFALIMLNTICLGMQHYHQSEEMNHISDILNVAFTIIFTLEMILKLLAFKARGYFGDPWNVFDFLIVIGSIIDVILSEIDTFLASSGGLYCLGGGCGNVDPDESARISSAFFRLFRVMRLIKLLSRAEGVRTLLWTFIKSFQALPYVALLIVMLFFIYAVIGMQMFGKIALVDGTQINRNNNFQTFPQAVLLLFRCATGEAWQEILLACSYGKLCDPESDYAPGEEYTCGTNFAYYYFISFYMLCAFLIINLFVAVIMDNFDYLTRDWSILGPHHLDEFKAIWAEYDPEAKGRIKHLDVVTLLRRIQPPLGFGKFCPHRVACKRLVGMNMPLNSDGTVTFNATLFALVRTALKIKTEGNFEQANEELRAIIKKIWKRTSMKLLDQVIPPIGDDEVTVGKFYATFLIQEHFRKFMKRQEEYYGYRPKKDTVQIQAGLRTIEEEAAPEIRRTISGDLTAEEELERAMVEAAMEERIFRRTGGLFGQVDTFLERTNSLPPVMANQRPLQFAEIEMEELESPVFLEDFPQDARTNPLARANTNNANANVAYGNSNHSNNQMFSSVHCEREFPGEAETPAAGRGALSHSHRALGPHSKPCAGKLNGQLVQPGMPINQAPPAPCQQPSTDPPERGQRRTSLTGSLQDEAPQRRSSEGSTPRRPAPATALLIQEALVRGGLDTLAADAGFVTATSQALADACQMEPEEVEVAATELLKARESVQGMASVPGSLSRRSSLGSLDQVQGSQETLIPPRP
T1 sequence (P13806 27-960 partner limits assumed): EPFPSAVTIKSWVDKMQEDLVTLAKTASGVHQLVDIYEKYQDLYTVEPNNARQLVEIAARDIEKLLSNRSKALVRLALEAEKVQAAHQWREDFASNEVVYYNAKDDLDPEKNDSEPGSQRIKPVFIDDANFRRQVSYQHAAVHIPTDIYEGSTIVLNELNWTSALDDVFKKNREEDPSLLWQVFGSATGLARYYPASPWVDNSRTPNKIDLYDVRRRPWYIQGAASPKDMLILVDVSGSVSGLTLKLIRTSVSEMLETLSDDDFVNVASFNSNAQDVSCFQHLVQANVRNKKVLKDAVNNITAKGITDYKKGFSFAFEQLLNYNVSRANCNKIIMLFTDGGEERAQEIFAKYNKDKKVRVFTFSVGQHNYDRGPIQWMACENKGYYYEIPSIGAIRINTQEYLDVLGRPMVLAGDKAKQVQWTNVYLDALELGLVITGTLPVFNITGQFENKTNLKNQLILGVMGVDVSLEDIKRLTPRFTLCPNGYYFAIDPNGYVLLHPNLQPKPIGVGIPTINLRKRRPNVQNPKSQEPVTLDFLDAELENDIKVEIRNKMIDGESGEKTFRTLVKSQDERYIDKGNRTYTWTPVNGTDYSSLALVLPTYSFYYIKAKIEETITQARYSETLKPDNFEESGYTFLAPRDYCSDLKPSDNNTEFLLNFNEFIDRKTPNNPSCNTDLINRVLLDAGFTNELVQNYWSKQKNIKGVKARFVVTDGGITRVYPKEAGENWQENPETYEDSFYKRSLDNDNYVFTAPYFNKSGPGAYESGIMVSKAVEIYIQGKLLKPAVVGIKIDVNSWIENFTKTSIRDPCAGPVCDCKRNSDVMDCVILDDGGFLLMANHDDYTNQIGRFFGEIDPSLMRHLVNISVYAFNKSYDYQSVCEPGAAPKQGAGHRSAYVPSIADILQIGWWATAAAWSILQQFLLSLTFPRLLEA
T1 sequence (P13806 961-1106 partner limits assumed): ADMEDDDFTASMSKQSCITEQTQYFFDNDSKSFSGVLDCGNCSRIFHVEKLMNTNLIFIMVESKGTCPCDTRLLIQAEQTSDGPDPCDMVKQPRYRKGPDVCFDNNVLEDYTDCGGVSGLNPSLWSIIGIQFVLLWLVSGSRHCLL
T1 sequence (P19517 whole entry partner): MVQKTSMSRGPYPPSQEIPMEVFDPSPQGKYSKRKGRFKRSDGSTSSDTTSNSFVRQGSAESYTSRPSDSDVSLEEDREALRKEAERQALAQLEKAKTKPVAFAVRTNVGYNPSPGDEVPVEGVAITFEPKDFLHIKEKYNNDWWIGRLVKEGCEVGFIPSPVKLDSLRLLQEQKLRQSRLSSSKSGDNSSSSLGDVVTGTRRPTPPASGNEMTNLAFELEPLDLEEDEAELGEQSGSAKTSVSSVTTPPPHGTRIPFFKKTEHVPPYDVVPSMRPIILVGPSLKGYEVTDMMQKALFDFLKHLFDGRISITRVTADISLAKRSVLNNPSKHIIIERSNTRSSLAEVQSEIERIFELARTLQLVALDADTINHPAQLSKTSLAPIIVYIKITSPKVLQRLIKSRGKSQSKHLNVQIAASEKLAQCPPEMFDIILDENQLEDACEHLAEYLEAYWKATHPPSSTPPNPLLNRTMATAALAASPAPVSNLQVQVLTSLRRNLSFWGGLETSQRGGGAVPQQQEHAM
T1 sequence (P19518 whole entry partner): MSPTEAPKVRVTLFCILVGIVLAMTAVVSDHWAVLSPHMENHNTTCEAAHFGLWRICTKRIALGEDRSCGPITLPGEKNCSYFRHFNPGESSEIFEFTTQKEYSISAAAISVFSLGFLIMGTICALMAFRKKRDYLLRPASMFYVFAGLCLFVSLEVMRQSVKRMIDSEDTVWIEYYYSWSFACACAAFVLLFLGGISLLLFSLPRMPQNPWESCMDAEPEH

Row | Compound | Ki [1] [µM] | effect on proportion of worms which did not produce eggs until after 48 hours of culture ([2]; 0.25 μg/ml) | effect on proportion of worms producing eggs in the three production categories ([2]; 0.25 μg/ml and 2.5 μg/ml, Chi Square 4.15, p=0.386) | effect on proportion of worms which did not produce eggs until after 48 hours of culture ([2]; 2.5 μg/ml, Fisher's exact test, p=0.013) | decrease in the total number of eggs produced by all worms of the treatment group ([2]; 2.5 μg/ml, eight days) [%] | worms in the highest egg-production category ([2]; 2.5 μg/ml, control worms 34%) [%] | proportion of non-producers ([2]; 25 μg/ml as printed, control worms 17%) [%] | effect on proportion of non-producers, pairwise comparison with control ([2]; 50 μg, Fisher Exact test, 2-tailed, p<0.0001) | decrease in the total number of eggs produced by all worms of the treatment group ([2]; 50 μg/ml, eight days) [%] | egg production ([2]; 50 μg/ml, eight days) | number of worms producing eggs 48+ Hours ([2]; verapamil 0.25 μg/ml) | number of worms producing eggs within 48 Hours ([2]; verapamil 0.25 μg/ml) | number of worms producing eggs 48+ Hours ([2]; verapamil 2.5 μg/ml) | number of worms producing eggs within 48 Hours ([2]; verapamil 2.5 μg/ml) | number of worms producing eggs 48+ Hours ([2]; verapamil 50 μg/ml) | number of worms producing eggs within 48 Hours ([2]; verapamil 50 μg/ml) | effect on egg production compared to controls [3]
1 | [Ca] [calcium] | ~300 | – | – | – | – | – | – | – | – | – | – | – | – | – | – | – | –
2 | COc1ccc(CCN(C)CCCC(C#N)(c2ccc(OC)c(OC)c2)C(C)C)cc1OC (stereo not drawn) [verapamil, α-[3-[[2-(3,4-dimethoxyphenyl)ethyl]methyl-amine]propyl]-3,4-dimethoxy-α-(1-methylethyl)-benzeneacetonitrile] | – | not | did not significantly affect | significantly increased | 38 | 15 | 30 | significantly affected egg production | 100 | no eggs were produced at any time | 8 | 24 | 14 | 14 | 0 | 0 | significantly inhibited

— patent publication US6514963B2, “Methods for the inhibition of egg production in trematodes” (The Regents of the University of California, priority 2000, dated 2003)
